According to PubChem BioAssay (NCI):
Where “and” joins values, the source holds several entries; their conditions need not be identical. Equal entries are not always repeated.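 Briefly, cells in 96-well plates were exposed to five compound concentrations for 48 h, and endpoints were estimated by linear interpolation. GI50 marks 50% less growth. TGI: concentration producing complete growth inhibition.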

How the values were obtained:
Experiment in all cases: NCI tumour cell line growth inhibition, 48 h
[1] = test system: DMS 114 small cell lung
[2] = test system: SNB-78 CNS
[3] = test system: LXFL 529 NSCLC
[4] = test system: DMS 273 small cell lung
[5] = test system: DLD-1 colon
[6] = test system: HOP-18 NSCLC
[7] = test system: XF 498 CNS
[8] = test system: MDA-N
[9] = test system: RXF-631 renal
[10] = test system: P388 leukemia
[11] = test system: P388/ADR leukemia

SMILES | TGI [1] [µM] | TGI [2] [µM] | TGI [3] [µM] | TGI [4] | TGI [5] [µM] | TGI [6] | TGI [7] | TGI [8] [µM] | also measured
CN(C)CCC(/C=C/c1ccccc1)=N\Nc1ccc(Cl)cc1 | 5.9 | 21.4 | 9.26 | 4.66 µM | 11.1 | 17 µM | – | – | –
COc1ccc(C(=O)C/C(=N/NC(N)=S)C(=O)Nc2ccccc2)cc1 | > 100 | > 100 | > 100 | > 100 µM | > 100 | > 100 µM | > 100 µM | – | –
CC(C)C[C@H]1C(=O)N2CCC[C@H]2[C@]2(O)O[C@](NC(=O)[C@@H]3C=C4c5cccc6[nH]c(Br)c(c56)C[C@H]4N(C)C3)(C(C)C)C(=O)N12 | – | – | – | – | – | – | – | > 100 | –
C[CH2][Ge]([CH2]C)([CH2]C)[O]C(=O)C([O][Ge]([CH2]C)([CH2]C)[CH2]C)c1ccccc1 (configuration not stated) | 31.6 | – | 44.9 | – | > 100 | 59 µM | – | – | GI50 [1]: 5.84 µM; GI50 [3]: 9.67 µM; GI50 [5]: 20.3 µM; GI50 [6]: 26.7 µM
CCP(C)(C)=O | > 100 | > 100 | > 100 | > 100 µM | > 100 | – | > 100 µM | – | –
CC(C)(C)c1cc(-c2c3nc(c(-c4cc(C(C)(C)C)cc(C(C)(C)C)c4)c4ccc([nH]4)c(-c4cc(C(C)(C)C)cc(C(C)(C)C)c4)c4nc(c(-c5cc(C(C)(C)C)cc(C(C)(C)C)c5)c5ccc2[nH]5)C=C4)C=C3)cc(C(C)(C)C)c1 | > 100 | > 100 | > 100 | > 100 µM | > 100 | > 100 µM | > 100 µM | – | TGI [9]: > 100 µM
Cc1ncc([N+](=O)[O-])n1CCNC(=O)Cn1ccnc1[N+](=O)[O-] | – | – | – | – | – | – | – | > 100 | –
CCOC(=O)C1=C(C)N(NC(=O)OC)C2(N)N(NC(=O)OC)C(C)=C(C(=O)OCC)C12C#N (configuration not stated) | > 100 | – | > 100 | > 100 µM | > 100 | – | > 100 µM | – | –
Cc1ccccc1NC(=O)C(=O)CC(=O)C1CCOC1=O (configuration not stated) | > 100 | > 100 | > 100 | > 100 µM | > 100 | > 100 µM | > 100 µM | – | –
NC1=NCC(c2ccccn2)C1c1ccc(F)cc1 (configuration not stated) | > 100 | > 100 | > 100 | – | > 100 | > 100 µM | > 100 µM | – | TGI [9]: > 100 µM
C/C(=C1/N=C(c2ccccc2)OC1=O)c1ccccc1 | – | – | – | – | – | – | – | > 100 | –
CC1(C)Cc2nnsc2C2=C1C(=O)CCS2 | > 100 | – | > 100 | > 100 µM | > 100 | > 100 µM | – | – | –
Cc1cccc2c(N=Nc3ccccc3[N+](=O)[O-])c(O)[nH]c12 | – | – | – | – | – | – | – | > 100 | –
O=C([CH-]C(=O)c1ccccc1)c1ccccc1.[CH3-].[CH3-].[CH3-].[Sn+4] | – | – | – | – | – | > 100 µM | – | – | GI50 [6]: 39 µM
Oc1c(Cl)cc(CN(Cc2cc(Cl)c(O)c(Cl)c2)C2CCCCC2)cc1Cl | – | – | – | – | – | – | – | > 100 | –
COC1C(O)CC(OC2CC(OC3CC(O[C@@H]4C(=O)c5c(cc6cc(OC7CC(OC8CC(O)C(O)C(C)O8)C(O)C(C)O7)c(C)c(O)c6c5O)C[C@H]4[C@H](OC)C(=O)[C@@H](O)[C@@H](C)O)OC(C)C3O)OC(C)C2O)OC1C (some centres not stated) | 4.5 | > 100 | > 100 | 1.67 µM | > 100 | 36 µM | 0.191 µM | – | –
C/C(CC(=O)Nc1ccccc1)=N\NC(N)=S | > 100 | > 100 | > 100 | > 100 µM | > 100 | – | > 100 µM | – | –
O=C(O)c1nnsc1-c1csnn1 | – | – | – | – | – | – | – | > 100 | –
COc1ccc(/C(=C\c2cc(OC)c(OC)c(OC)c2)C(=O)O)cc1 | 67.2 | > 100 | > 100 | > 100 µM | > 100 | > 100 µM | 62.3 µM | – | –

SMILES | TGI [1] [µM] | TGI [2] [µM] | TGI [3] [µM] | TGI [4] | TGI [5] [µM] | TGI [6] | TGI [7] | TGI [8] [µM] | also measured
Nc1cc(N)cc(Cc2ccccc2)c1 | – | – | – | – | – | – | – | > 100 | –
Cc1cc(Cl)ccc1N1C(=O)C(=O)C(c2nc3ccccc3o2)C(=O)C1=O | > 100 | > 100 | > 100 | > 100 µM | > 100 | > 100 µM | > 100 µM | – | –
O=C1[C@@H]2C(c3ccncc3)=NO[C@@H]2C(=O)N1c1ccc(Cc2ccc(N3C(=O)[C@H]4C(c5ccncc5)=NO[C@H]4C3=O)cc2)cc1 | > 100 | > 100 | > 100 | > 100 µM | > 100 | > 100 µM | – | – | TGI [9]: > 100 µM
Clc1ccc(N/N=C(\c2ccccc2)c2ccccn2)nc1 | – | – | – | – | – | – | – | 26.5 | –
CCOC(=O)C(O)Cc1cnc2ccccc2n1 (configuration not stated) | – | – | – | – | – | – | – | > 100 | –
CC(=O)OCC1OC(n2c(=S)n(-c3ccccc3)c(=O)c3cc(Br)ccc32)C(OC(C)=O)C(OC(C)=O)C1OC(C)=O (configuration not stated) | > 100 | > 100 | > 100 | > 100 µM | > 100 | – | 61.2 µM and > 100 µM | – | GI50 [7]: 23.6 µM and > 100 µM; GI50 [2]: 41.5 µM and > 10 µM; TGI [9]: > 100 µM
O=C(Nc1ccccc1[N+](=O)[O-])C(=O)C(C(=O)c1ccccc1-c1ccccc1)C1OC(=O)c2ccccc21 (configuration not stated) | 31.7 | > 100 | 23 | 38.5 µM | 44.8 | 31.6 µM | – | – | TGI [9]: 35.3 µM
C=CCN(N=O)C(=O)N(CCCCC(NC(C)=O)C(=O)NCc1ccccc1)Cc1ccccc1 (configuration not stated) | 86.4 | – | > 100 | > 100 µM | – | 81.6 µM | > 100 µM | – | TGI [9]: > 100 µM
COc1cccc2c1C(=O)c1c(O)c3c(c(O)c1C2=O)C[C@@](O)(C(C)=O)C[C@@H]3OC1CC(O)C(O)C(C)O1 (some centres not stated) | – | 59.1 | 15.3 | 7.84 µM and 3.46 µM | 15.9 | 7.13 µM and 7.74 µM | – | 21.4 | GI50 [10]: 0.013 µM; TGI [10]: 0.372 µM; TGI [11]: 1.64 µM; GI50 [3]: 1.49 µM
COC(=O)[C@@H]1[C@H](O)[C@H](C)[C@H](O)[C@H](C)/C=C\C=C(C)C(=O)Nc2c(C)c(OC(C)=O)c3c(c2O)C(=O)C(C)=C2OCOC(=C23)C(C)=C[C@@](C)(O)[C@H](O)[C@@H](C)[C@H]1OC(C)=O | – | – | – | – | – | – | – | 41.9 | –
CC1NCCc2c1[nH]c1cc(O)ccc21 (configuration not stated) | > 100 | > 100 | > 100 | – | > 100 | > 100 µM | > 100 µM | – | –
Cc1nnc2n1N=C(c1ccc(-c3ccc([N+](=O)[O-])cc3)o1)CS2 | – | > 100 | > 100 | > 100 µM | > 100 | – | – | – | –
CN(C)CCC(=O)N1CCc2c([nH]c3ccccc23)C1c1cccnc1 (configuration not stated) | > 100 | > 100 | > 100 | > 100 µM | > 100 | > 100 µM | > 100 µM | – | TGI [9]: > 100 µM
OCCSCC/C(=N\N=C(/CCSCCO)c1ccccc1)c1ccccc1 | > 100 | > 100 | > 100 | – | > 100 | > 100 µM | > 100 µM | – | TGI [9]: > 100 µM
Cc1[nH]c(=O)nc(N/N=C/c2ccc(Cl)cc2)c1C(=O)Nc1ccc(Cl)cc1 | 56.1 | > 100 | > 73.3 | > 100 µM | > 100 | 7.3 µM | 25.2 µM | > 100 | –
C/C=C/C=C/CCCCCCCCCCCCC[C@]1(OC)C=CC(CC(=O)OC)OO1 (some centres not stated) | – | – | 28.2 | – | 41.9 | – | 44.6 µM | – | GI50 [7]: 24.2 µM; GI50 [3]: 14.7 µM; GI50 [5]: 20.2 µM; GI50 [9]: 24 µM; TGI [9]: 56 µM
Cc1cccc2cc3cccc(C(=O)NCCN(C)C)c3nc12 | 1.02 | 11.4 | 10.6 | 0.926 µM | 5.11 | 9.35 µM | – | – | TGI [9]: 27.7 µM
Cc1cc(Cl)cc2c1NC(=O)C2(O)CC(=O)c1ccc(F)cc1 (configuration not stated) | – | > 100 | – | > 100 µM | > 100 | 90.7 µM | 66.4 µM | – | –
O=C1c2ccccc2C(=O)c2sc(Nc3ccc(Cl)cc3)nc21 | 3.63 | 8.03 | 3.1 | 3.74 µM | 3.41 | 7.26 µM | 4.7 µM | – | –
